Results taken from patent publication US20240368133A1, “Compounds for the Treatment of Pain, in Particular, Neuropathic Pain, and/or Other Diseases or Disorders that are Associated with AT2R and/or AT2R Mediated Signaling” (Confo Therapeutics N.V., priority 2021, published 2024).
Values after ≈ are worked out from the molar mass of the structure shown. Like-named read-outs stand apart in the source and are kept apart here.

What was measured:
[1] = biological target: human AT2R fused to Cb23 (Homo sapiens, UniProt P50052); test: Radioligand binding assay, displacement of 125I-[Sar1, Ile8]-Angiotensin II, hAT2R Cb23; conditions: displacement of 125I-[Sar1, Ile8]-Angiotensin II, human AT2R fused to Cb23, HEK-293 cell membrane preparations; read-out: Binding affinity on hAT2R_Cb23 IC50
Method in brief: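 Membranes from HEK-293 cells expressing human AT2R fused to Cb23 were incubated with 0.05 nM 125I-[Sar1, Ile8]-Angiotensin II in 100 μL buffer (50 mM Tris, 5 mM MgCl2, 1 mM EDTA, 0.1% BSA, pH 7.4) for one hour at 25° C. Ligands were tested as eight-point dose-response curves in duplicate, with C21 and Angiotensin II as references.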

[2] = Kinetic solubility; assay type: physicochemical; conditions: kinetic from dmso stock
Experimental: Starting from a 20 mM stock solution of test compound in 100% DMSO, dilutions were prepared to a theoretical concentration of 400 μM in duplicates in phosphate-buffered saline pH 7.4 (PBS) (138 mM NaCl, 2.7 mM KCl, 10 mM K-phosphate) and 100 mM citrate buffer pH 3.0 with 2% final DMSO.
The experimental compound dilutions in PBS and citrate buffer were further allowed to equilibrate at 25° C. on a thermostatic orbital shaker for two hours and then centrifuged at 14000 rpm, 5 min and filtered through HTS filter plates using a vacuum manifold. The filtrates of test compounds were diluted 2-fold with acetonitrile with 2% DMSO before measuring. In parallel, compound dilutions in 50% acetonitrile/buffer were prepared to the theoretical concentrations of 0 μM (blank), 100 μM, 200 μM and 400 μM with 2% final DMSO to generate calibration curves.
Ondansetron (Sigma Aldrich USA, cat #03639) was used as a reference to control proper assay performance. 200 μl of each sample were transferred to a 96-well plate and solubility was measured in a 200-550 nm range (in steps of 5 nm). The measurements were performed using a Spectra Max Plus reader in UV-Vis mode. Acquisition and analysis of the data were performed using SoftMax Pro v.5.4 (Molecular Devices) and Excel 2010 data analysis software. Proper absorbance wavelengths for calculations were selected for each compound manually based on absorbance maximums (absolute absorbance unit values for the minimum and maximum concentration points within 0-3 OD range). Each of the final datasets was additionally visually evaluated by the operator and goodness of fit (R2) is calculated for each calibration curve.

[3] = biological target: CYP2C9 (Homo sapiens (Human), UniProt P11712); test: CYP inhibition, CYP2C9; assay type: in vitro ADME; conditions: test compound at 10 μM, read-out: % Inhibition (PIN) 2C9
Experimental: The aim of this assay is to determine the inhibitory potential of a test compound. A major concern for drug-drug-interaction is cytochrome P450 inhibition. Reversible CYP inhibition was determined in human liver microsomes using specific probe substrates for human cytochrome P450 isoenzymes CYP1A2, 2C9, 2C19, 2D6 and 3A4.
The potential for CYP450 inhibition was assessed by performing in vitro inhibition studies using fluorogenic CYP450 substrates with the corresponding CYP450 enzymes and NADPH regeneration system (Vivid CYP450 Screening Kits) with some minor changes to the manufacturer's protocols. The fluorescent signal produced from reaction is directly proportional to the cytochrome P450 activity. In the cases when tested compounds interfere with the CYP450 enzyme-substrate reaction, the fluorescent signal decreases. […] After 10 minutes pre-incubation, the enzymatic reaction was initiated by the addition of a mix of NADPH and the appropriate CYP450 substrates. The plate was incubated for the desired reaction time (25 min for CYP1A2, CYP2C9, CYP2D6, and CYP3A4, 60 min for CYP2C19) after which Stop Reagent was added and fluorescence measured using SpectraMax Paradigm Multi-Mode Microplate Reader. All test points were performed in quadruplicates at concentration 10 μM (1% DMSO).
A 10 mM stock solution of test compound is prepared in methanol. This stock is further serially diluted 1:3 in methanol and then added to mixture containing 50 mM potassium phosphate buffer pH7.4, human liver microsomes (BD Gentest) and probe substrate. […]
After incubation at 37° C., the reaction (aliquot of 50 μL) is terminated with 150 μL CH3CN:MeOH (2:1) solution with internal standard (warfarin for 2C9, diclofenac for all other tested isoforms). Samples are centrifuged and the supernatant fractions analyzed by LC-MS/MS.
The instrument responses (ratio of test compound and internal standard peak areas) are referenced to those for solvent controls (assumed as 100%) in order to determine the percentage reduction in probe metabolism. Percent of control activity vs. concentration plots are generated and fitted using GraphPad Prism software to generate IC50.

[4] = aqueous buffer, kinetic solubility, phosphate-buffered saline pH 7.4, 2% DMSO, 25° C., two hours, read-out: PBS solubility, pH 7.4
[5] = citrate buffer, 25 °C, pH 3, aqueous buffer, read-out: Citrate buffer solubility, pH 3.0

Chain of CYP2C9 (P11712 whole entry): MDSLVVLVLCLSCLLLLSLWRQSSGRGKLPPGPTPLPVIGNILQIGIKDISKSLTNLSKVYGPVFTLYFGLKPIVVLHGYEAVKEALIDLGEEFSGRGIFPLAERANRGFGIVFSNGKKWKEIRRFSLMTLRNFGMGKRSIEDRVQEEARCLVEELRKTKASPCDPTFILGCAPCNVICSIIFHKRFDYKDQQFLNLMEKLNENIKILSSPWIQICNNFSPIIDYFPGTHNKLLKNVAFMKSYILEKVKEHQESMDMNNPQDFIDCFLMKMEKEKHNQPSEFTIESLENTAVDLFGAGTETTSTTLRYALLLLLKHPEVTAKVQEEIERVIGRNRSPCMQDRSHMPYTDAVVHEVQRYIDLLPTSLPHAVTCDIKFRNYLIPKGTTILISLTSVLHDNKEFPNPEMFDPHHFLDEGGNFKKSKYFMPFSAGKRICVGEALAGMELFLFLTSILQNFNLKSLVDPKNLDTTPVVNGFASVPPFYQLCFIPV
Chain of human AT2R fused to Cb23 (P50052 whole entry, looked up, the tested form may be a part): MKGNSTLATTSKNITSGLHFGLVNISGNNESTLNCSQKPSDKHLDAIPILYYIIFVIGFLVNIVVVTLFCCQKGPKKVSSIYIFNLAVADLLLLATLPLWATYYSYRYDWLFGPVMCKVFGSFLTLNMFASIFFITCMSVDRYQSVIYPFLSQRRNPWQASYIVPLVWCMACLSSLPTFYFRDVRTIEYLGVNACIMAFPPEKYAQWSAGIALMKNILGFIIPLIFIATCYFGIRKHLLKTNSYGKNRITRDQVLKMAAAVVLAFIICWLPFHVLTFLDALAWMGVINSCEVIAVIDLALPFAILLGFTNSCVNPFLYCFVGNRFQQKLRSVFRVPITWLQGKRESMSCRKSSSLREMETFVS

SMILES | IC50 [1] | solubility at 2 h [2, 4] | solubility at 2 h [2, 5] | inhibition at 10 µM [3]
CCCCOC(=O)NS(=O)(=O)c1ccc(C(F)(F)F)cc1N1CCN(Cc2nc3ccccc3n2C)CC1 [Compound A-09, butyl N-[2-[4-[(1-methylbenzimidazol-2-yl)methyl]piperazin-1-yl]-4-(trifluoromethyl)phenyl]sulfonylcarbamate] | 2180 nM | 318 µM (≈ 176 µg/mL) | ≥ 400 µM | 
CCCCNC(=O)NS(=O)(=O)c1ccc(C(F)(F)F)cc1N1CCN(Cc2nc3ccccc3n2C)CC1 [Compound A-10, 1-butyl-3-[2-[4-[(1-methylbenzimidazol-2-yl)methyl]piperazin-1-yl]-4-(trifluoromethyl)phenyl]sulfonyl-urea] |  | ≥ 400 µM | ≥ 400 µM | 46.1%
CCCCNC(=O)NS(=O)(=O)c1ccc(C)cc1N1CCN(Cc2nc3ccccc3n2C)CC1 [Compound A-12, 1-butyl-3-[4-methyl-2-[4-[(1-methylbenzimidazol-2-yl)methyl]piperazin-1-yl]phenyl]sulfonyl-urea] | 1270 nM | 54 µM (≈ 26.9 µg/mL) | ≥ 400 µM | 
CC(C)Cc1ccc(-c2nn[nH]n2)c(N2CCN(Cc3nc4ccccc4n3C)CC2)c1 [Compound A-20, 2-[[4-[5-isobutyl-2-(2H-tetrazol-5-yl)-phenyl]piperazin-1-yl]methyl]-1-meth-yl-benzimidazole] | 510 nM | ≥ 400 µM | ≥ 400 µM | 
CC(C)Oc1ccc(-c2nn[nH]n2)c(N2CCN(Cc3nc4ccccc4n3C)CC2)c1 [Compound A-24, 2-[[4-[5-isopropoxy-2-(2H-tetrazol-5-yl)phenyl]piperazin-1-yl]methyl]-1-methyl-benzimidazole] | 7140 nM | ≥ 400 µM | ≥ 400 µM | 36.6%
CC(C)Cc1ccc(-c2nn[nH]n2)c(N2CCN(Cc3nc4ccccc4c(=O)[nH]3)CC2)c1 [Compound A-31, 2-[[4-[5-isobutyl-2-(2H-tetrazol-5-yl)phenyl]piperazin-1-yl]methyl]-3H-quinazolin-4-one] | 2070 nM | ≥ 400 µM | 40 µM (≈ 17.8 µg/mL) | 73%
CC(C)Oc1ccc(-c2nn[nH]n2)c(N2CCN(Cc3nc4ccccc4c(=O)[nH]3)CC2)c1 [Compound A-32] | 14700 nM | 394 µM (≈ 176 µg/mL) | 399 µM (≈ 178 µg/mL) | 62.4%
CC(C)Oc1ccc(-c2nn[nH]n2)c(N2CCN(Cc3nc4ccccc4s3)CC2)c1 [Compound A-51, 2-[[4-[5-isoprop-oxy-2-(2H-tetrazol-5-yl)phenyl]piper-azin-1-yl]methyl]-1,3-benzothiazole] | 2110 nM | ≥ 400 µM | 4 µM (≈ 1.74 µg/mL) | 
Cc1cc(CN2CCN(c3cc(CC(C)C)ccc3-c3nn[nH]n3)CC2)no1 [Compound A-82, 3-[[4-[5-isobutyl-2-(2H-tetrazol-5-yl)phenyl]piperazin-1-yl]methyl]-5-methyl-isoxazole] | 3200 nM |  |  | 32.1%
CC(C)Cc1ccc(-c2nn[nH]n2)c(N2CCN(Cc3nccn3C)CC2)c1 [Compound A-83, 1-[5-isobutyl-2-(2H-tetrazol-5-yl)-phenyl]-4-[(1-meth-ylimidazol-2-yl)-methyl]piperazine] | 1780 nM |  |  | 3.37%
CC(C)Cc1ccc(-c2nn[nH]n2)c(N2CCN(Cc3ccnn3C)CC2)c1 [Compound A-84, 1-[5-isobutyl-2-(2H-tetrazol-5-yl)phenyl]-4-[(1-methylpyrazol-5-yl)methyl]piperazine] | 2370 nM |  |  | 56.2%
CC(C)Cc1ccc(-c2nn[nH]n2)c(N2CCN(Cc3ncccn3)CC2)c1 [Compound A-88] | 15500 nM |  |  | 15.8%
CC(C)Cc1ccc(-c2nn[nH]n2)c(N2CCN(Cc3cccnn3)CC2)c1 [Compound A-90, 3-[[4-[5-isobutyl-2-(2H-tetrazol-5-yl)phenyl]piperazin-1-yl]methyl]pyridazine] | 2030 nM | ≥ 400 µM | ≥ 400 µM | 28.4%
CC(C)Cc1cc(F)c(-c2nn[nH]n2)c(N2CCN(Cc3cccnn3)C(C)C2)c1 (stereo not shown) [Compound A-173, 3-[[4-[3-fluoro-5-isobutyl-2-(2H-tetrazol-5-yl)phenyl]-2-methyl-piperazin-1-yl]methyl]pyridazine] | 16 nM | 376 µM (≈ 154 µg/mL) | 356 µM (≈ 146 µg/mL) | 17.2%
CC(C)Cc1cc(F)c(-c2nn[nH]n2)c(N2CCN(Cc3cccnn3)[C@@H](C)C2)c1 [Compound A-174, 3-[[(2S)-4-[3-fluoro-5-isobutyl-2-(2H-tetrazol-5-yl)phenyl]-2-methyl-piperazin-1-yl]methyl]pyridazine] | 2.35 nM | 385 µM (≈ 158 µg/mL) | 356 µM (≈ 146 µg/mL) | 20.9%
CCC1CN(c2cc(CC(C)C)cc(F)c2-c2nn[nH]n2)CCN1Cc1cccnn1 (stereo not shown) [Compound A-178, 3-[[2-ethyl-4-[3-fluoro-5-isobutyl-2-(2H-tetrazol-5-yl)phenyl]piperazin-1-yl]methyl]pyridazine] | 33.5 nM | ≥ 400 µM | ≥ 400 µM | 45.6%
CCC1CN(Cc2cccnn2)CCN1c1cc(CC(C)C)cc(F)c1-c1nn[nH]n1 (stereo not shown) [Compound A-181, 3-[[3-ethyl-4-[3-fluoro-5-isobutyl-2-(2H-tetrazol-5-yl)phenyl]piperazin-1-yl]methyl]pyridazine] | 14.8 nM | ≥ 400 µM | 388 µM (≈ 165 µg/mL) | 
CC(C)Cc1cc(F)c(-c2nn[nH]n2)c(N2CC(C)N(Cc3cccnn3)CC2C)c1 (stereo not shown) [Compound A-183, 3-[[4-[3-fluoro-5-isobutyl-2-(2H-tetrazol-5-yl)phen-yl]-2,5-dimethyl-piperazin-1-yl]-methyl]pyridazine] | 8.33 nM | 383 µM (≈ 163 µg/mL) | 377 µM (≈ 160 µg/mL) | 
CC(C)Cc1cc(F)c(-c2nn[nH]n2)c(N2CCN(Cc3ccccn3)[C@@H](C)C2)c1 [Compound A-217, (2S)-4-[3-fluoro-5-isobutyl-2-(2H-tetrazol-5-yl)phenyl]-2-methyl-1-(2-pyridylmethyl)piperazine] | 2.79 nM |  |  | 51%
Cc1cnc(CN2CCN(c3cc(CC(C)C)cc(F)c3-c3nn[nH]n3)C[C@@H]2C)s1 [Compound A-223, 2-[[(2S)-4-[3-fluoro-5-isobutyl-2-(2H-tetrazol-5-yl)phenyl]-2-methyl-piperazin-1-yl]methyl]-5-methyl-thiazole] | 6 nM |  |  | 43%
